Results published in patent US20220145264A1, “CULTURE MEDIUM FOR MAMMALIAN EXPANDED POTENTIAL STEM CELLS, COMPOSITION, AND METHODS THEREOF” (THE UNIVERSITY OF HONG KONG, priority 2019, published 2022).

Tests used:
[1] = tested on: Dox-dependent porcine iPSCs; assay: Dox removal from Dox-dependent porcine iPSCs; format: cell-based; settings: upon Dox removal
Method: Germany Landrace and China TAIHU OCT4-TD-tomato [2] Porcine fetal fibroblasts (PFFs) were plated on gelatinized 15-cm tissue culture plates and cultured in M20 media. They were trypsinized with 0.25% trypsin/EDTA solution (Gibco, Cat. No. 25500-054) and harvested for electroporation at 80% confluence. M20: knockout DMEM (Gibco, Cat. No. 10829-018), 20% FBS (Gibco, Cat. No. 10270), 1× Glutamine Penicillin-Streptomycin (Thermo Fisher Scientific, Cat. No. 11140-050) and 1×NEAA (Thermo Fisher Scientific, Cat. No. 10378-016). The transfections were performed using an Amaxa Nucleofector machine (Lonza) according to the manufacturer's protocol (NHDF Nucleofector® Kit, Cat. No. VPD-1001, program U-20). piggyBac transposition was used to achieve stable integration of reprogramming factors. The expression of the reprogramming factors was under the transcriptional control of the tetO2 tetracycline/doxycycline inducible promoter. 1.5 million PFFs and 6.0 μg DNA (2.0 μg PB-TRE-pOSCK, Porcine OCT4, SOX2, cMYC and KLF4; 1.0 μg PB-TRE-pNhL, 1.0 μg PB-TRE-hRL: human RARG and TRH1, 1.0 μg PB-EF1a-transposase and 1.0 μg PB-EF1a-rTTA) were used in each electroporation reaction. PB-TRE-pOSCK: cDNAs of porcine OCT4, SOX2, cMYC and KLF4 linked by 2A sequence were expressed as a single transcript from the tetO2 promoter. […]

AXIN1 [2] = assay: Western blot analysis of AXIN1 in porcine EPSCs; format: cell-based
Method: (§1) Whole-cell extracts were prepared from cells with indicated treatments in lysis buffer composed of 50 mM Tris-HCl (pH 7.5), 0.15M NaCl, 0.1% SDS, 1% Triton X-100, 1% sodium deoxycholate and complete mini EDTA free protease inhibitor cocktail (Roche Applied Science, Cat. No. 11836170001). The cells for the experiment were collected from the same batch of culture when the culture had reached 70-80% confluence. The biological replicates were included to allow the meaningful conclusions. 10 μg protein were used for electrophoresis and transferred to nitrocellulose membranes. Membranes were blocked with 5% milk and treated with antibodies. Primary antibodies of mouse or rabbit anti AXIN1, SMAD2/3, p-SMAD2/3 and ALPHA-TUBULIN were used. Horseradish peroxidase-conjugated secondary antibodies against rabbit or mouse IgG were added. After antibody treatment, blots were developed using ECL Western Blotting Detection System (Thermo Fisher Scientific, Cat. No. 32106). The antibodies used in these experiments is provided in Supplementary Table 9.

H1-EPSCs = assay: Requirement of individual culture components for hEPSCs (RT-qPCR, AP+ colony formation); format: cell-based, human; settings: withdrawal from medium, human EPSCs
Method: (§2) Porcine and human EPSC cultures were routinely maintained on STO feeders. STO feeder plates were prepared 3-4 days before passaging by thawing and plating the mitomycin C inactivated STO cells on 0.1% gelatinised plates at the density of ˜1.1×10^4 cells/cm^2. Porcine/human EPSC cells were maintained on STO feeder layers and enzymatically passaged every 3-5 days by a brief PBS wash followed by treatment for 3-5 minutes with 0.25% trypsin/EDTA (Gibco, Cat. No. 25500-054). The cells were dissociated and centrifuged (300 g×5 minutes) in M10 medium. M10: knockout DMEM (Gibco, Cat. No. 10829-018), 10% FBS (Gibco, Cat. No. 10270), 1× Glutamine Penicillin-Streptomycin (Thermo Fisher Scientific, Cat. No. 11140050) and 1×NEAA (Thermo Fisher Scientific, Cat. No. 10378-016). After removing supernatant, the porcine/human EPSCs were re-suspended and seeded in pEPSCM/hEPSCM supplemented with 5 μM ROCK inhibitor Y-27632 (Tocris, Cat. No. 1254). 5% FBS (Gibco, Cat. No. 10270) and 10% KnockOut Serum Replacement (KSR) (Gibco, Cat. No. 10828028) were added in pEPSCM and hEPSCM respectively to improve cells survive. 12-24 hours later, medium was switched to pEPSCM/hEPSCM only. Both pEPSCM and hEPSCM are N2B27 based media. N2B27 basal media (500 ml) was prepared by inclusion of the following components: 482.5 ml DMEM/F-12 (Gibco, Cat. No. 21331-020), 2.5 ml N2 supplement (Thermo Fisher Scientific, Cat. No. 17502048), 5 ml B27 supplement (Thermo Fisher Scientific, Cat. No. 17504044), 5 ml 1× Glutamine Penicillin-Streptomycin (Thermo Fisher Scientific, Cat. No. 11140-050), and 5 ml 1×NEAA (Thermo Fisher Scientific, Cat. No. 10378-016), 0.1 mM 2-mercaptoethanol (Sigma, Cat. No. M6250). pEPSCM (500 ml) was generated by adding the following small molecules and cytokines into 500 ml N2B27 basal media: 0.2 μM CHIR99021(GSK3i, TOCRIS, Cat. No. 4423), 1 μM WH-4-023 (SRC inhibitor, TOCRIS, Cat. No. 5413), 2.5 μM XAV939 (Sigma, Cat. No. X3004) or 2.5 μM IWR-1 (TOCRIS, Cat. No. 3532), […] Vitamin C (Sigma, Cat. No. 49752-100G), 10 ng/ml LIF (Stem Cell Institute, University of Cambridge. SCI) and 20 ng/ml ACTIVIN (SCI). hEPSCM (500 ml) was generated by adding the following components into 500 ml N2B27 basal media: 1.0 μM CHIR99021(GSK3 inhibitor, TOCRIS, Cat. No. 4423), 0.5 μM A-419259 (SRC inhibitor, TOCRIS, Cat. No. 3914), 2.5 μM XAV939 (Sigma, Cat. No. X3004), […] Vitamin C (Sigma, Cat. No. 49752-100G), 10 ng/ml LIF (SCI). Although both targeting SRC family kinases (SFKs), WH-4-023 and A419259 were preferred for porcine and human EPSCs, respectively. […] The concentrations of CHIR99021 for porcine and human EPSC cultures are 0.2 μM and 1.0 μM, respectively. […] 0.25 μM SB 590885 (BRAF inhibitor, R&D, Cat. No. 2650) and 2.0 μM SP600125 ([…], TOCRIS, Cat. No. 1496) were included to improve porcine and human EPSC cultures, but they were not essential for the routine maintenance of porcine and human EPSCs. All cell cultures in this paper were performed under conditions of 37° C. and 5% CO2 unless stated otherwise.
(§3) Total RNA was isolated using an RNeasy Mini Kit (Qiagen, Cat. No. 74106) for cultured cells or RNeasy Micro Kit (Qiagen, Cat. No. 74034) for sorted NANOS3-mCherry^+ cells. RNA was subsequently quantified and treated with gDNA WipeOut to remove genomic DNA. Complementary DNA (cDNA) was prepared using a QuantiTect Reverse Transcription Kit (Qiagen, Cat. No. 205311). RT-qPCR primers or TaqMan Gene Expression Assays (Life Technologies) are listed in Supplementary Table 10 and 11. ABsolute Blue qPCR ROX Mix (ABgene, Cat. No. AB4138B) were used for probe based qPCR assays and SYBR Green ROX qPCR Mastermix (Qiagen, Cat. No. 330523) were used for primer based qPCR assays. All qPCR reactions were performed on ABI 7900 HT Sequence Detection System (Life Technologies). Information on all primers and probes used for qPCR analysis are provided in Supplementary Table 10 and 11. Gene expression was determined relative to GAPDH using the […]. […]

canonical Wnt signalling [3] = assay: TOPflash luciferase assay in porcine EPSCs; format: cell-based
Method: (§4) For the TOPflash assay, 2.0×10^6 cells were transfected with 10 μg TOPflash plasmid. 5 μg pRL-TK (Renilla) vectors were also transfected for normalization. Cells were split 1:9 into a 24-well plate in pEPSCM and hEPSCM with or without XAV939 (WNTi, 2.5 μM, Cat. No. X3004) for 48 h. Cell lysates were collected for luciferase assays. For determining the regulation pattern of Oct4 expression in porcine EPSCs, 10 μg reporter constructs were electroporated into 1.5×10^6 pEPSCs with 5 μg pRL-TK. Assays were performed 48 h later. All luciferase assays were performed using the Dual-Glo Luciferase Assay System (Promega, Cat. No. E2920).

canonical Wnt signalling [4] = assay: TOPflash luciferase assay in human EPSCs; format: cell-based
Method: as §4

pEPSCs^Emb = assay: Requirement of individual culture components for pEPSCs (RT-qPCR, AP+ colony formation); format: cell-based, porcine; settings: withdrawal from medium, porcine EPSCs
Method: as §2, §3

AXIN1 [5] = assay: Western blot analysis of AXIN1 in human EPSCs; format: cell-based
Method: as §1

SMILES | time to differentiation of iPSCs [1] [days] | AXIN1 protein content (AXIN1 [2]) | state of EPSCs on withdrawal of the compound (H1-EPSCs) | canonical WNT activities (canonical Wnt signalling [3]; porcine EPSCs) | TOPflash activity (canonical Wnt signalling [3]; removing XAV939 from pEPSCM for 5 days) | canonical WNT activities (canonical Wnt signalling [4]; human EPSCs) | TOPflash activity (canonical Wnt signalling [4]; removing XAV939 from hEPSCM for 5 days) | state of EPSCs on withdrawal of the compound (pEPSCs^Emb) | AXIN1 protein content (AXIN1 [5])
C[C@H]1c2cccc(O)c2C(=O)C2=C(O)[C@]3(O)C(=O)C(C(N)=O)=C(O)[C@@H](N(C)C)[C@@H]3[C@@H](O)[C@@H]21 [Dox, Doxycycline] | 4 to 5 |  |  |  |  |  |  |  | 
Oc1nc(-c2ccc(C(F)(F)F)cc2)nc2c1CSCC2 [XAV939] |  | enhanced | collapse and differentiation | reduced | substantially increased | reduced | substantially increased | collapse and differentiation | enhanced
